For data set [1] the following is noted: in vivo; stated for o-vanillin, reported previously for its isomer vanillin (Beaudry 2010); cited from earlier work.
Data set [2] has as its target T1, interaction of TLR2 with MyD88 (Homo sapiens, UniProt O60603).
T1 construct: host or cells: THP-1 cells, PMA 20 ng/mL for 24 hrs, P3C-stimulated
Description: Co-immunoprecipitation of TLR2 with MyD88 in THP-1 cells. The format is cell-based. As to conditions: C29 150 μM, P3C 50 ng/mL, 15 and 30 minutes, statistical significance at 30 minutes. The protocol:
FIG. 2. C29 inhibits ligand-induced interaction of TLR2 with MyD88 and blocks MAPK and NF-κβ activation. (A) THP-1 cells were cultured in the presence of PMA (20 ng/mL) for 24 hrs and washed twice in media. THP-1 human monocytes were pretreated with media, vehicle (195 μM NaOH), or C29 (150 μM) for 1 hr and treated with P3C (50 ng/mL) in the presence of media, vehicle, or C29 for 15 or 30 min. Co-immunoprecipitation (IP) was carried out using anti-MyD88 antibody and Western analysis (IB) using whole cell lysates. (B) Densitometry analysis (mean±SEM) of 3 independent experiments as shown in (A). (C) Murine peritoneal macrophages were pretreated for 1 hr with media, vehicle (65 μM NaOH), or C29 (50 μM) and treated with P3C (50 ng/mL) for 5-30 min in the presence of media, vehicle, or C29. IB was performed using whole cell lysates and antibodies directed against the signaling intermediates indicated. β-actin was probed as a loading protein. […]
Cells were treated and washed once with 1×PBS and lysed using buffer containing 20 mM HEPES (pH 7.4), 150 mM NaCl, 1 mM EDTA, 1 mM EGTA (pH 8.0), 50 mM NaF, 0.5% Triton X-100, 1 mM Na3VO4, 1 mM DTT, 1 mM PMSF, and protease inhibitor (Roche Applied Science, Indianapolis, IN). Cells were harvested and protein was quantified using BCA Protein assay reagents (Thermo Scientific/Pierce, Rockford, IL). […]

A further data set has as its system TNF-α-induced signaling. As to the kind of experiment: hTNF-α-induced IL-8 mRNA in HEK-TLR2 stable transfectants. The class given is cell-based, human. As to conditions: C29 10 μM or 50 μM, hTNF-α 300 ng/mL 1 hr.
A further data set concerns the target TLR2 (Mus musculus, UniProt Q9QUN7). As to the kind of experiment: Cytokine mRNA in murine peritoneal macrophages (PEC) stimulated with bacterial TLR2 agonists. The format is cell-based. As to conditions: C29 50 μM.
The mark [3] stands for this setting: murine macrophages, MOI=0.7, 4 hrs.
Setting [4] is: primary murine macrophages (PEC), MOI=50, 4 hrs.

These results are taken from US12653800B2, “Small molecule inhibitors of TLR2 signaling” (University of Maryland, Baltimore, priority 2015, dated 2026).

Sequence of TLR2 (Q9QUN7 25-784): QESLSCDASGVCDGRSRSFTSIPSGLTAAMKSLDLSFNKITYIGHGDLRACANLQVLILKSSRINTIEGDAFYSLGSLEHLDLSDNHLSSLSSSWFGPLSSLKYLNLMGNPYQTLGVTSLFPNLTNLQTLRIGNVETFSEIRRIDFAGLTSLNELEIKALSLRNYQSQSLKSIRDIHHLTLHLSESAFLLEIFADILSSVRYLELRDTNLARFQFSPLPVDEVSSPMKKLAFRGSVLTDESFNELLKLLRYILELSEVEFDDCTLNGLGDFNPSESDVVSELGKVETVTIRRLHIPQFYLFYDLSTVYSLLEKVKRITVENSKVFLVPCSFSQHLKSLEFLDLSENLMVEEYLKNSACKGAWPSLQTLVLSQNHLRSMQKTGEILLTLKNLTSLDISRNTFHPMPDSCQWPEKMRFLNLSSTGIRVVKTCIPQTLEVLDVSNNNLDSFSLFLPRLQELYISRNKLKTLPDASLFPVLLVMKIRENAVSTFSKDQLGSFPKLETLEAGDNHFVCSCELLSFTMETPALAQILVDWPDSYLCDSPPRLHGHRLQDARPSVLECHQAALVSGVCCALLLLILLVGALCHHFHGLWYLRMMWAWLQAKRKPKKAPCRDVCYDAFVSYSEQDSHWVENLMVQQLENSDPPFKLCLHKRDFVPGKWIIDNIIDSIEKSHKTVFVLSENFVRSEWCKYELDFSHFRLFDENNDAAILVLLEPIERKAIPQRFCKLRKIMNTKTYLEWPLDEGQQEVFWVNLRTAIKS
T1 sequence (O60603 21-784): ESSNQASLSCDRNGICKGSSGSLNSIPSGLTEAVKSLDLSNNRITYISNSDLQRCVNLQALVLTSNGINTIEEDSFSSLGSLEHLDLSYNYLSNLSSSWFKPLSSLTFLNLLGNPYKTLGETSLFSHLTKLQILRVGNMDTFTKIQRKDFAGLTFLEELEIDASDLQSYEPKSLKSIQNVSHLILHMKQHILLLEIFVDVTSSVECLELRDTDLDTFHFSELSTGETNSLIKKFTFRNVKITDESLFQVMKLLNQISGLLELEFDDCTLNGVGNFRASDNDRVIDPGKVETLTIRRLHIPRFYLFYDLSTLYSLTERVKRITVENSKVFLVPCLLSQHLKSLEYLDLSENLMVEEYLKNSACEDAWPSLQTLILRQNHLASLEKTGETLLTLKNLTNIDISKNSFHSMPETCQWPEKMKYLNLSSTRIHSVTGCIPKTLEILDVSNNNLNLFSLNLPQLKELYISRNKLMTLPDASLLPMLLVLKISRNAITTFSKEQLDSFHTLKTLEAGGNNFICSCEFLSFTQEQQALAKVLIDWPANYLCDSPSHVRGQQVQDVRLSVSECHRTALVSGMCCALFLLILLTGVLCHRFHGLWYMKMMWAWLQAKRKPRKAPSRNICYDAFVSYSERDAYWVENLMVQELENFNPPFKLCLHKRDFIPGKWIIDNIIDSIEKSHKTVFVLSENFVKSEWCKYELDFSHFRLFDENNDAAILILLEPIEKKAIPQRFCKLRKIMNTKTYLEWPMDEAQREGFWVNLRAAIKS

Take `COc1cccc(C=O)c1O` [Compound C29L, ortho-vanillin]: the bioavailability entry in data set [1] was “poor bioavailability”.
For `COc1cccc(/C=N/c2cccc(C(=O)O)c2C)c1O` [Compound C29], the “interaction between endogenous TLR2 and MyD88 (co-IP)” value in data set [2] is listed as “diminished the interaction”. Further, in the data set with TNF-α-induced signaling, the “TNF-α-induced signaling (IL-8 mRNA)” value is listed as “no effect”. In addition, on TLR2 (setting [3]), the “live S. pneumoniae-induced IL-1β mRNA” value was “inhibited” and the “live S. pneumoniae-induced IL-12 p40 mRNA” value is “inhibited”. For the same molecule, at TLR2 (setting [4]), the “HKSA-mediated IL-1β mRNA” value is given as “significantly blocked” and the “heat-killed S. pneumoniae (HKSP)-mediated IL-1β mRNA” value is “significantly blocked”.
